According to the supplement of paper PMC10307832:

How the values were obtained:
Assay in all cases: relative viability (nuclei count vs DMSO), 5 days (fraction); higher = more cells survive
Serdemetan + Trametinib = compound: c1ccc2c(CCNc3ccc(Nc4ccncc4)cc3)c[nH]c2c1 [Serdemetan] + CC(=O)Nc1cccc(-n2c(=O)n(C3CC3)c(=O)c3c(Nc4ccc(I)cc4F)n(C)c(=O)c(C)c32)c1 [Trametinib] (partner 0.02 µM)
Outline: (§1)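 The day after seeding in 1536-well plates, lung cancer cell lines were treated by pin tool with a single drug, or with a fixed anchor-drug dose together with five library-drug doses (not always all listed) in √10 steps. After 5 days, a combined fix-and-stain solution (final 0.05% Triton X-100, 1% formaldehyde, 1 ug/ml Hoechst) was added. Nuclei counted on 4× images gave relative viability as treated counts over vehicle counts, reported as the median of duplicate plates.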

Serdemetan + AZD7762 = compound: c1ccc2c(CCNc3ccc(Nc4ccncc4)cc3)c[nH]c2c1 [Serdemetan] + NC(=O)Nc1cc(-c2cccc(F)c2)sc1C(=O)N[C@H]1CCCNC1 [AZD7762] (partner 0.2 µM)
Outline: as §1

Selisistat + Decitabine = compound: C1CC(C2=C(C1)C3=C(N2)C=CC(=C3)Cl)C(=O)N [Selisistat] + Nc1ncn([C@H]2C[C@H](O)[C@@H](CO)O2)c(=O)n1 [Decitabine] (partner 2 µM)
Outline: as §1

Selisistat + Pictilisib = compound: C1CC(C2=C(C1)C3=C(N2)C=CC(=C3)Cl)C(=O)N [Selisistat] + CS(=O)(=O)N1CCN(Cc2cc3nc(-c4cccc5[nH]ncc45)nc(N4CCOCC4)c3s2)CC1 [Pictilisib] (partner 1 µM)
Outline: as §1

| Cell Line | relative viability (Serdemetan + Trametinib; first compound 0.04 µM) | relative viability (Serdemetan + Trametinib; first compound 0.1265 µM) | relative viability (Serdemetan + Trametinib; first compound 0.4 µM) | relative viability (Serdemetan + Trametinib; first compound 1.265 µM) | relative viability (Serdemetan + Trametinib; first compound 4 µM) | relative viability (Serdemetan + AZD7762; first compound 0.04 µM) | relative viability (Serdemetan + AZD7762; first compound 0.1265 µM) | relative viability (Serdemetan + AZD7762; first compound 0.4 µM) | relative viability (Serdemetan + AZD7762; first compound 1.265 µM) | relative viability (Serdemetan + AZD7762; first compound 4 µM) | relative viability (Selisistat + Decitabine; first compound 0.4 µM) | relative viability (Selisistat + Decitabine; first compound 1.265 µM) | relative viability (Selisistat + Decitabine; first compound 4 µM) | relative viability (Selisistat + Decitabine; first compound 12.65 µM) | relative viability (Selisistat + Decitabine; first compound 40 µM) | relative viability (Selisistat + Pictilisib; first compound 0.4 µM) | relative viability (Selisistat + Pictilisib; first compound 1.265 µM) | relative viability (Selisistat + Pictilisib; first compound 4 µM) | relative viability (Selisistat + Pictilisib; first compound 12.65 µM) | relative viability (Selisistat + Pictilisib; first compound 40 µM) |
| --- | --- | --- | --- | --- | --- | --- | --- | --- | --- | --- | --- | --- | --- | --- | --- | --- | --- | --- | --- | --- |
| 201T | 0.769 | 0.687 | 0.736 | 0.653 | 0.631 | 0.624 | 0.502 | 0.846 | 0.378 | 0.422 | 0.915 | 0.816 | 0.845 | 0.877 | 0.913 | 0.69 | 0.648 | 0.58 | 0.673 | 0.685 |
| A549 | – | – | – | – | – | – | – | – | – | – | 0.257 | 0.209 | 0.232 | – | 0.393 | 0.605 | 0.478 | 0.525 | 0.55 | 0.449 |
| A-427 | 0.699 | 0.732 | 0.877 | 0.698 | 0.506 | 0.759 | 0.671 | 0.664 | 0.538 | 0.495 | 0.578 | 0.575 | – | 0.655 | 0.637 | 0.625 | 0.622 | 0.327 | 0.656 | 0.73 |
| ABC-1 | – | – | – | – | – | 0.971 | 0.67 | 0.722 | – | 0.866 | 0.881 | 1.02 | – | 0.86 | 1.08 | 0.782 | 0.895 | 0.728 | 0.758 | 0.773 |
| BEN | 0.944 | 0.853 | 1.06 | 1.03 | 0.794 | 0.75 | 0.545 | 0.662 | 0.556 | 0.641 | 0.923 | 0.556 | 0.479 | 0.707 | 0.691 | 0.581 | 0.578 | 0.459 | 0.548 | 0.521 |
| CAL-12T | 0.447 | 0.335 | 0.334 | 0.365 | 0.308 | 0.557 | 0.609 | 0.555 | 0.547 | 0.599 | – | – | – | – | – | 0.384 | 0.388 | – | 0.6 | 0.314 |
| COR-L23 | 0.616 | 0.606 | 0.617 | 0.502 | 0.449 | – | – | – | – | – | 0.596 | 0.423 | 0.484 | 0.436 | 0.411 | 0.821 | 0.78 | 0.899 | 0.701 | 0.689 |
| COR-L 105 | 0.435 | 0.482 | 0.366 | 0.487 | 0.491 | – | – | – | – | – | 0.664 | 0.731 | 0.587 | 0.635 | 0.598 | 0.432 | 0.412 | 0.322 | 0.405 | 0.418 |
| Calu-6 | – | – | – | – | – | – | – | – | – | – | – | – | – | – | – | 0.867 | 0.886 | 0.895 | 0.872 | 0.925 |
| ChaGo-K-1 | 0.875 | 0.805 | 0.602 | 0.266 | 0.293 | 0.876 | 0.801 | 0.75 | 0.507 | 0.545 | 0.486 | 0.511 | 0.482 | 0.491 | 0.502 | 0.804 | 0.844 | – | 0.675 | 0.646 |
| EBC-1 | – | – | – | – | – | – | – | – | – | – | – | – | – | – | – | 0.373 | 0.286 | 0.46 | 0.454 | 0.389 |
| EKVX | 0.45 | 0.396 | – | – | 0.268 | 0.808 | 0.746 | – | – | 0.649 | 0.415 | 0.355 | 0.339 | 0.367 | 0.368 | 0.451 | 0.432 | 0.39 | 0.442 | 0.53 |
| EMC-BAC-2 | 0.833 | 0.889 | 0.886 | 0.754 | 0.719 | 1.08 | 1.1 | 1.07 | 0.955 | 0.827 | 1.11 | 0.897 | 0.931 | 0.933 | 0.683 | 0.551 | 0.53 | 0.477 | 0.577 | 0.524 |
| EPLC-272H | 0.32 | 0.281 | 0.28 | 0.292 | 0.25 | 0.245 | 0.217 | 0.221 | 0.221 | 0.215 | 0.365 | 0.389 | – | 0.382 | 0.364 | 0.261 | 0.337 | – | 0.287 | 0.332 |
| H3255 | 0.618 | 0.561 | – | 0.464 | 0.516 | 0.826 | 0.601 | 0.733 | 0.832 | 0.792 | 0.624 | 0.628 | 0.562 | 0.578 | 0.61 | 0.508 | 0.41 | 0.481 | 0.494 | 0.532 |
| HARA | 0.529 | 0.658 | 0.649 | 0.42 | 0.641 | 0.298 | 0.196 | 0.266 | 0.23 | 0.304 | 0.777 | 0.529 | – | 0.48 | 0.647 | 0.492 | 0.366 | 0.348 | 0.307 | 0.401 |
| HCC-15 | 0.402 | 0.397 | 0.361 | 0.334 | 0.317 | 0.952 | 1.49 | 1.23 | 0.72 | 1.07 | 0.695 | 0.739 | – | 0.737 | 0.79 | 0.813 | 0.775 | – | 0.814 | 0.793 |
| HCC-44 | 1.08 | 1.05 | 0.968 | 0.964 | 0.837 | 0.921 | 1.01 | 0.994 | 0.936 | 0.934 | 0.976 | 1.01 | 0.943 | 1.01 | 1.07 | 0.633 | 0.551 | 0.595 | 0.599 | 0.436 |
| HCC-78 | 0.725 | 0.731 | 0.796 | 0.688 | 0.552 | 0.578 | 0.571 | 0.514 | 0.589 | 0.503 | 0.768 | 0.794 | 0.6 | 0.66 | 0.646 | 0.253 | 0.229 | 0.172 | 0.196 | 0.181 |
| HCC-366 | 0.279 | 0.114 | 0.0617 | 0.0278 | 0.0741 | 0.124 | 0.0954 | 0.0688 | 0.0374 | 0.0632 | 0.383 | 0.31 | 0.33 | 0.356 | 0.324 | 0.098 | 0.135 | 0.129 | 0.0936 | 0.207 |
